Experiment: Stability of angiotensin peptides in binding buffer (reverse phase HPLC)
Type: physicochemical
Details: 4 h at 37° C.
Procedure: Binding studies were carried out in a buffer (below) containing an extensive cocktail of inhibitors that was designed to minimize metabolism of both the receptor and the test ligand, i.e., the buffer contained 5 mM EDTA, 0.2% BSA, […] Bestatin, 50 μM Plummer's inhibitor, and 100 μM PMSF.

CC[C@H](C)[C@H](NC(=O)[C@H](Cc1ccc(O)cc1)NC(=O)[C@@H](N)C(C)C)C(=O)N[C@@H](Cc1cnc[nH]1)C(=O)N1CCC[C@H]1C(=O)N[C@@H](Cc1ccccc1)C(=O)O [AIV, Val1 Tyr2 Ile3 His4 Pro5 Phe6]
hydrolysis in binding buffer: less than 10%
